Source: article PMC11373198, “In vitro efficacy of next-generation dihydrotriazines and biguanides against babesiosis and malaria parasites” (Antimicrobial Agents and Chemotherapy, 2024)
Like-named read-outs stand apart in the source and are kept apart here.

Assays:
[1] = tested on: B. duncani (WA-1); assay: In vitro growth inhibition of B. duncani in human erythrocytes (SYBR Green-I); assay type: cell-based, Babesia duncani; conditions: for IC50: 60 h; for activity against B. duncani, structure-activity relationship: analogs compared within screening, 2-chloro, 4-trifluoromethoxy series or terminal aryl heterocycles
[2] = tested on: B. divergens (Rouen87); assay: In vitro growth inhibition of B. divergens in human erythrocytes (SYBR Green-I); assay type: cell-based; conditions: Babesia divergens, Erythrocyte, DFS20 medium
Description: (§1) The effect of DHT derivatives on the intraerythrocytic development of P. falciparum, B. duncani, B. divergens and B. MO1 and the determination of IC50 values were conducted as previously reported ([54], [67]). Briefly, the parasites cultured in vitro (0.1% parasitemia with 5% hematocrit in complete DFS20 medium or RPMI-1640) were treated with various concentrations of the compounds in a 96-well plate and incubated at 37 °C for either 60 h in the case of B. duncani or 72 h in the case of P. falciparum. Parasitemia was then determined using the SYBR Green-I method by adding an equal volume of parasite culture to the lysis buffer (0.008% saponin, 0.08% Triton-X-100, 20 mM Tris-HCl (pH = 7.5), and 5 mM EDTA) containing SYBR Green-I (0.01%). The mixture was then incubated at 37°C for 1 h in the dark. The fluorescence was measured at 480 nm (excitation) and 540 nm (emission) using a BioTek Synergy™ Mx Microplate Reader. Background fluorescence from uninfected erythrocytes maintained in a complete DFS20 and RPMI-1640 medium was subtracted from each sample, and the 50% inhibitory concentration (IC50) of the drug was determined by plotting drug concentrations versus parasite growth using GraphPad Prism 9.2.1. Data are shown as mean ± SD from two biological replicates with three technical replicates.

[3] = tested on: B. MO1; assay: In vitro growth inhibition of B. MO1 in human erythrocytes (SYBR Green-I); assay type: cell-based, Babesia MO1; conditions: DFS20 medium
Description: as §1

[4] = tested on: P. falciparum 3D7; assay: In vitro growth inhibition of P. falciparum 3D7 (SYBR Green-I); assay type: cell-based, Plasmodium falciparum
[5] = tested on: P. falciparum Dd2; assay: In vitro growth inhibition of P. falciparum Dd2 (SYBR Green-I); assay type: cell-based, Plasmodium falciparum; conditions: DFS20 medium, read-out: PfDd2 (IC50 in nM)
[6] = tested on: P. falciparum HB3; assay: In vitro growth inhibition of P. falciparum HB3 (SYBR Green-I); assay type: cell-based, Plasmodium falciparum; conditions: DFS20 medium, read-out: PfHB3 (IC50 in nM)
[7] = tested on: human cell lines (HepG2, HCT-116, HEK-293, and HeLa); assay: Cytotoxicity on human cell lines, average / overall, and therapeutic index; assay type: cell-based; conditions: HepG2, HCT-116, HEK-293, HeLa, MTT 72 h
Description: HeLa, HepG2, HEK293, and HCT116 cell lines were obtained from the American Type Culture Collection (ATCC) and maintained in Dulbecco’s modified Eagle’s medium (DMEM) (Invitrogen 11995–065) containing 25 mM glucose, 1 mM sodium pyruvate, and supplemented with 5 mM HEPES, 10% FBS, and penicillin-streptomycin (50 U/mL penicillin, 50 µg/mL streptomycin). Cells were seeded in a 96-well tissue culture plate (20,000 cells per well) and allowed to adhere for 24 hours, after which they were treated with a 12-step 2-fold serial dilution of each drug starting at 1 mM as the highest final concentration. Cells maintained in the medium supplemented with either 0.1% or 10% DMSO were used as negative and positive vehicle controls, respectively. The plates were incubated at 37 °C for 72 h, after which each well was incubated with 0.5 mg/mL of MTT reagent (MP Chemicals #02102227) for 4 h in the dark at 37 °C. The formazan crystals formed by living cells were solubilized with the addition of 100 µL of DMSO to each well. We measured the OD590nm using a SpectraMax plate reader. From the obtained OD values, percent cell viability was estimated by normalizing to the mean of 10% DMSO wells (set as 100% toxicity) and mean of the vehicle control wells (set as 0% toxicity). Dose-response curves were plotted using GraphPad Prism version 9.1.2.

[8] = tested on: Babesia gibsoni; parameters: method as in PMID 18794380, PMID 21904052; conditions: cited from earlier work
[9] = tested on: Babesia bovis; parameters: method as in PMID 18794380, PMID 21904052; conditions: cited from earlier work
[10] = tested on: B. microti; parameters: method as in PMID 7447406; conditions: Mongolian jirds; cited from earlier work
[11] = tested on: B. duncani; parameters: method as in PMID 37055610; conditions: previous studies; read-out: IC50 against B. duncani; cited from earlier work
[12] = Babesia duncani, Erythrocyte, read-out: B. duncani WA1 (IC50 in nM), DFS20 medium, 60 h
[13] = Plasmodium falciparum, 3D7, 72 h, DFS20 medium, 72 h, read-out: Pf3D7 (IC50 in nM)
[14] = Plasmodium falciparum, 3D7, DFS20, Table S3, read-out: P.falciparum 3D7 (IC50 in nM), DFS20
[15] = Plasmodium falciparum, 3D7, RPMI-1640 + 10% human serum, read-out: P.falciparum 3D7 (IC50 in nM), RPMI-1640 + 10%human serum
[16] = Plasmodium falciparum, DD2, 72 h
[17] = Plasmodium falciparum, HB3, 72 h

| Compound | IC50 [1, 12] [nM] | activity against B. duncani, structure-activity relationship [1] | IC50 [2] [nM] | IC50 ([3]; Babesia, Erythrocyte) [nM] | IC50 [4, 13] [nM] | IC50 [4, 14] [nM] | IC50 [4, 15] [nM] | IC50 [5, 16] [nM] | IC50 [6, 17] [nM] | IC50 [7] [nM] | inhibition of in vitro parasite growth of Babesia gibsoni [8] | inhibition of in vitro parasite growth of Babesia bovis [9] | activity against B. microti infection [10] | IC50 ([1]; read-out: B. duncani WA1 (IC50 in nM), DFS20 medium) [nM] | IC50 [3] [nM] | IC50 ([4]; DFS20 medium, 72 h, read-out: Pf3D7 (IC50 in nM)) [nM] | IC50 ([5]; 72 h) [nM] | IC50 ([6]; 72 h) [nM] | IC50 [11] [nM] |
| --- | --- | --- | --- | --- | --- | --- | --- | --- | --- | --- | --- | --- | --- | --- | --- | --- | --- | --- | --- |
| NC1=NC(c2ccc(F)cc2)N(OCCCOc2ccc(OC(F)(F)F)cc2Cl)C(N)=N1 (centres unmarked) [JPC-3680] | 3.2 ± 0.21 | increased activity | 40 ± 0.7 | 6 ± 0.5 | 1.7 ± 0.7 | 1.2 ± 0.03 | 1.8 ± 0.3 | 37 ± 1.25 | 2.1 ± 0.33 | 10000 | – | – | – | – | – | – | – | – | – |
| CC1(C)N=C(N)N=C(N)N1OCCCOc1ccc(Cl)cc1Cl [JPC-210] | 3.6 ± 0.42 | – | 3.1 ± 1.42 | 0.8 ± 0.24 | 3.1 ± 1.24 | 1.6 ± 0.025 | 1.2 ± 0.1 | 0.05 ± 0.01 | 0.4 ± 0.07 | 69000 | – | – | – | – | – | – | – | – | – |
| CN(Cc1cnc2nc(N)nc(N)c2n1)c1ccc(C(=O)N[C@@H](CCC(=O)O)C(=O)O)cc1 [methotrexate] | – | – | – | – | – | – | – | – | – | – | moderate to effective inhibition | moderate to effective inhibition | – | – | – | – | – | – | – |
| Nc1ccc(S(=O)(=O)c2ccc(N)cc2)cc1 [dapsone] | – | – | – | – | – | – | – | – | – | – | – | – | little to no activity | – | – | – | – | – | – |
| CCC(C)C1(C)N=C(N)N=C(N)N1OCCCOc1cc(Cl)c(Cl)cc1Cl (centres unmarked) [JPC-2748] | 4.4 ± 0.01 | – | 3.7 ± 0.3 | 4 ± 0.74 | 3 ± 0.77 | 0.2 ± 0.12 | 2 ± 0.061 | 12 ± 1.13 | 0.41 ± 0.07 | 1500 | – | – | – | – | – | – | – | – | – |
| CC1(C)N=C(N)N=C(N)N1OCCCOc1ccccc1OC(F)(F)F [JPC-2060] | ~0.8 | – | ~4 | ~0.5 | ~1.9 | 1.9 ± 0.29 | 0.8 ± 0.17 | ~0.4 | ~0.6 | 15000 | – | – | – | 1 ± 0.06 | 0.6 ± 0.07 | 2.3 ± 0.5 | 0.77 ± 0.4 | 0.7 ± 0.1 | – |
| CCc1nc(N)nc(N)c1-c1ccc(Cl)cc1 [pyrimethamine, 2,4-Diamino-5-(4-chlorophenyl)−6-ethylpyrimidine] | – | – | – | – | – | – | – | – | – | – | moderate to effective inhibition | moderate to effective inhibition | little to no activity | – | – | – | – | – | 940 |
| COc1cc(Cc2cnc(N)nc2N)cc(OC)c1OC [trimethoprim] | – | – | – | – | – | – | – | – | – | – | moderate to effective inhibition | moderate to effective inhibition | little to no activity | – | – | – | – | – | – |
| NC1=NC(c2cccnc2)N(OCCCOc2ccc(OC(F)(F)F)cc2Cl)C(N)=N1 (centres unmarked) [JPC-3681] | 2 ± 0.2 | increased activity | 6.4 ± 0.7 | 1 ± 0.07 | 2.3 ± 0.3 | 0.7 ± 0.072 | 1 ± 0.08 | 0.45 ± 0.03 | 0.8 ± 0.07 | 38000 | – | – | – | – | – | – | – | – | – |
| CC1(C)N=C(N)N=C(N)N1OCCCOc1ccc(Cl)c(C#N)c1 [JPC-2053] | 13.4 ± 1.41 | – | 6.6 ± 1.7 | 0.6 ± 0.5 | 2.6 ± 1.51 | 1.5 ± 0.071 | 1.4 ± 0.021 | 0.5 ± 0.045 | 0.75 ± 0.34 | 26000 | – | – | – | – | – | – | – | – | – |
| CC1(C)N=C(N)N=C(N)N1OCCCOc1ccc(-n2cncn2)cc1 [JPC-1059] | 10.3 ± 0.7 | beneficial | 3.7 ± 0.7 | 5.4 ± 1.4 | 2 ± 0.64 | 1.3 ± 0.09 | 1.4 ± 0.021 | 0.3 ± 0.02 | 0.3 ± 0.17 | 132000 | – | – | – | – | – | – | – | – | – |
| Cc1cc(NS(=O)(=O)c2ccc(N)cc2)no1 [sulfamethoxazole] | – | – | – | – | – | – | – | – | – | – | – | – | little to no activity | – | – | – | – | – | – |
| COc1ccc(OCCCON2C(N)=NC(N)=NC2(C)C)cc1 [JPC-1044] | 7.1 ± 0.32 | – | 12 ± 0.16 | 0.2 ± 0.15 | 3.3 ± 2 | 2 ± 0.02 | 3.8 ± 0.022 | 0.6 ± 0.14 | 0.42 ± 0.25 | 62000 | – | – | – | – | – | – | – | – | – |
| CC1(C)N=C(N)N=C(N)N1OCCCOc1ccc(-c2nnnn2C(C)(C)C)cc1 [JPC-3671] | 1.6 ± 0.5 | beneficial | 24 ± 2.14 | 6.5 ± 0.7 | 1 ± 0.32 | 2.1 ± 0.016 | 2.6 ± 0.02 | 17 ± 1.5 | 0.4 ± 0.02 | 38000 | – | – | – | – | – | – | – | – | – |
